Experimental data: the NIST ThermoML archive (doi:10.1016/j.tca.2015.07.011)
Values joined by “and” are separate entries in the source; they are usually repeats but may differ in a detail not shown here. Equal entries are not always repeated.

Legend:
[1] = for mass density: 293 K, 101.33 kPa, Pycnometric method; for vapor or sublimation pressure: Transpiration method
[2] = Molar enthalpy of transition or fusion; details: DSC

CC(C)COc1ccccc1C(=O)O [2-iso-butoxybenzoic acid]
Details	mass density [kg/m3]
[1], Liquid	1100

[1], Liquid
Details	vapor or sublimation pressure
343.9 K	0.0008 kPa
353.1 K	0.00176 kPa
363.2 K	0.0041 kPa
365.2 K	0.0048 kPa
369.2 K	0.00662 kPa
371.2 K	0.00775 kPa
371.4 K	0.00817 kPa and 0.00791 kPa
371.5 K	0.00808 kPa
374.2 K	0.01017 kPa
374.4 K	0.00999 kPa
376.5 K	0.01179 kPa
377.3 K	0.01245 kPa
378.5 K	0.01391 kPa
379.2 K	0.01467 kPa
380.1 K	0.01546 kPa
380.2 K	0.01553 kPa
382.4 K	0.0177 kPa
384.2 K	0.02038 kPa
385.8 K	0.02237 kPa
388.1 K	0.02622 kPa
390.3 K	0.03064 kPa
393 K	0.03639 kPa
395.2 K	0.04478 kPa
398.1 K	0.05373 kPa

COc1ccccc1C(=O)O [2-methoxybenzoic acid]
[1], Crystal
Details	vapor or sublimation pressure [kPa]
342.4 K	0.00098
346.2 K	0.00152
348.2 K	0.00181
350.3 K	0.00221
352.2 K	0.00272
354.3 K	0.00347
356.2 K	0.00419
358.9 K	0.00536
361.4 K	0.0068
363.2 K	0.00813
366.2 K	0.01064
367.9 K	0.01262
371.5 K	0.01728

CC(C)COc1cccc(C(=O)O)c1 [3-iso-butoxybenzoic acid]
Crystal
Details	Molar enthalpy of transition or fusion [kcal/mol]	mass density [kg/m3]
[1]	–	1130
[2]	6.02	–

[1]
Details	Normal melting temperature [°C]	vapor or sublimation pressure [kPa]
354.8 K, Liquid	–	0.00162
356.2 K, Liquid	–	0.00181
357.4 K, Liquid	–	0.00202
359.5 K, Liquid	–	0.00238
361.2 K, Liquid	–	0.00281
363 K, Liquid	–	0.0032
364.2 K, Liquid	–	0.00358
365.7 K, Liquid	–	0.00406
368.3 K, Liquid	–	0.00493
370.9 K, Liquid	–	0.00601
372.7 K, Liquid	–	0.00707
373.7 K, Liquid	–	0.00763
375.3 K, Liquid	–	0.00871
378.2 K, Liquid	–	0.01099
380.1 K, Liquid	–	0.013
382.7 K, Liquid	–	0.01579
Crystal, DTA	80.4	–
Crystal, visual observation	80.00	–

CCCCOc1ccc(C(=O)O)cc1 [4-butoxybenzoic acid]
[1], Crystal
Details	vapor or sublimation pressure
377.8 K	0.00164 kPa
383.4 K	0.00285 kPa
391 K	0.00586 kPa
396.2 K	0.00973 kPa
399.3 K	0.01214 kPa
401.3 K	0.01536 kPa
406.4 K	0.02366 kPa
411.4 K	0.03676 kPa
415.4 K	0.04923 kPa
417.3 K	0.05826 kPa and 0.05838 kPa

CC(C)COc1ccc(C(=O)O)cc1 [4-iso-butoxybenzoic acid]
Details	Molar enthalpy of transition or fusion, Crystal 1 [kcal/mol]	Molar enthalpy of transition or fusion, Crystal 2 [kcal/mol]	Normal melting temperature, Crystal 1, DTA [°C]	Triple point temperature, Crystal 2, DTA [K]	mass density, Crystal [kg/m3]
[1]	–	–	142.2	412.5	1130
[2]	4.52	0.669	–	–	–

[1]
Details	Normal melting temperature [°C]	vapor or sublimation pressure
342.3 K, Crystal 2	–	7e-05 kPa
343.5 K, Crystal 2	–	8e-05 kPa
346.4 K, Crystal 2	–	0.00011 kPa
348.5 K, Crystal 2	–	0.00014 kPa
349.2 K, Crystal 2	–	0.00015 kPa
353.4 K, Crystal 2	–	0.00026 kPa
353.6 K, Crystal 2	–	0.00025 kPa
356.9 K, Crystal 2	–	0.00038 kPa
359.2 K, Crystal 2	–	0.00046 kPa
360.4 K, Crystal 2	–	0.00055 kPa
361.6 K, Crystal 2	–	0.00066 kPa
363.4 K, Crystal 2	–	0.00078 kPa
363.5 K, Crystal 2	–	0.00078 kPa
365.4 K, Crystal 2	–	0.00096 kPa
365.9 K, Crystal 2	–	0.00102 kPa
367.8 K, Crystal 2	–	0.00122 kPa
368.2 K, Crystal 2	–	0.00119 kPa
368.7 K, Crystal 2	–	0.00134 kPa
368.9 K, Crystal 2	–	0.0014 kPa
370.7 K, Crystal 2	–	0.00162 kPa
373.1 K, Crystal 2	–	0.00199 kPa
373.3 K, Crystal 2	–	0.00216 kPa
378.6 K, Crystal 2	–	0.00342 kPa
379.3 K, Crystal 2	–	0.00369 kPa
381 K, Crystal 2	–	0.00422 kPa
388.5 K, Crystal 2	–	0.0089 kPa
390.5 K, Crystal 2	–	0.01034 kPa
393.6 K, Crystal 2	–	0.01381 kPa and 0.01388 kPa
393.7 K, Crystal 2	–	0.0142 kPa
393.8 K, Crystal 2	–	0.01384 kPa
395.2 K, Crystal 2	–	0.01617 kPa
396.9 K, Crystal 2	–	0.01961 kPa
397.4 K, Crystal 2	–	0.02032 kPa
398.6 K, Crystal 2	–	0.02126 kPa
399 K, Crystal 2	–	0.02336 kPa
399.9 K, Crystal 2	–	0.02413 kPa
402.6 K, Crystal 2	–	0.03218 kPa
403.2 K, Crystal 2	–	0.03283 kPa
Crystal, visual observation	140.00	–
